Assay results: paper PMC4832243, “Discovery of Potent VEGFR-2 Inhibitors based on Furopyrimidine and Thienopyrimidne Scaffolds as Cancer Targeting Agents” (Scientific Reports, 2016)

Tested on: Ehrlich ascites carcinoma (EAC) solid tumor
Experiment: In vivo anticancer activity, EAC solid tumor murine model
Set-up: species or system Swiss albino mice
Details: for TGI (%): once daily for 8 consecutive days; for Histopathological examination of EAC tumor sections (necrosis): hematoxylin-eosin, 40x
Protocol: Animals. Female Swiss albino mice weighing 15–20 g were used in the present study. They were obtained from the animal breeding laboratory, National Cancer Institute (NCI), Cairo University, Egypt. Animals were kept in our animal facility, faculty of pharmacy, Ain Shams university at 25 ± 2 °C and a relative humidity of 40–45% with alternative day and night cycles of 12 h each. Animals had free access to pellet food and water ad libitum. Standard diet pellets (El-Nasr, Abu Zaabal, Egypt) contained not less than 20% protein, 5% fiber, 3.5% fat, 6.5% ash and a vitamin mixture. Animal care and experiments were conducted in accordance with the protocols approved by the Ethics Research Committee, Faculty of Pharmacy, Ain Shams University, following the Institutional Animal Care and Use Committee guidelines.
Tumor cells preparation and transplantation. Ehrlich ascites carcinoma (EAC) cells were obtained from NCI, Cairo University, Egypt. EAC cells were maintained in the ascitic form in Swiss albino mice by intraperitoneal transplantation of each mouse every 10 days. Ascitic fluid was drawn from tumor-bearing mice at the log phase (7–8th day of tumor bearing) of the tumor cells. The freshly drawn fluid was diluted with ice-cold sterile isotonic saline. 200 μl tumor cell suspension containing 2 × 10^6 tumor cells were then subcutaneously injected in each mouse.
Experimental design. Swiss albino mice were divided into six groups (n = 6 per group).
Evaluation of effectiveness. Tumor growth curve was drawn according to the change in tumor volume from first day of treatment (day 0) till day 7. Longest and shortest diameters of the solid tumor were monitored using a digital vernier caliper. Tumor volume (TV) of each animal was calculated using the following formula: […]
Tumor growth inhibition (TGI) was calculated as follows.
RTV = (Tumor volume at the day of measurement)/Tumor volume at the initial day.
Histopathological Examination
thickness by slidge microtome.
graded ethanol solutions.

Compound: Cc1cccc(NC(=O)Nc2ccc(Oc3ncnc4sc5c(c34)CCCC5)cc2)c1 [Compound 21b]
- Tumor Index (5 mg/kg/day po, 8 consecutive days, mean ± SD, n = 6): 0.041 ± 0.016
- TGI (%) (5 mg/kg/day po): 70.7%
- Histopathological examination of EAC tumor sections (necrosis) (5 mg/kg): mild focal necrosis
- TGI (%) (10 mg/kg/day po): 86.4%
- Histopathological examination of EAC tumor sections (necrosis) (10 mg/kg): moderate diffuse necrosis
